# Measured values published in ChEMBL document CHEMBL1137573, “Cyclooxygenase-2 inhibitors. 1,5-diarylpyrrol-3-acetic esters with enhanced inhibitory activity toward cyclooxygenase-2 and improved cyclooxygenase-2/cyclooxygenase-1 selectivity” (J Med Chem, 2007).
# Legend:
# [1] = biological target: T1, Prostaglandin G/H synthase 2 (Mus musculus, UniProt Q05769)
# T1 sequence (Q05769 whole entry): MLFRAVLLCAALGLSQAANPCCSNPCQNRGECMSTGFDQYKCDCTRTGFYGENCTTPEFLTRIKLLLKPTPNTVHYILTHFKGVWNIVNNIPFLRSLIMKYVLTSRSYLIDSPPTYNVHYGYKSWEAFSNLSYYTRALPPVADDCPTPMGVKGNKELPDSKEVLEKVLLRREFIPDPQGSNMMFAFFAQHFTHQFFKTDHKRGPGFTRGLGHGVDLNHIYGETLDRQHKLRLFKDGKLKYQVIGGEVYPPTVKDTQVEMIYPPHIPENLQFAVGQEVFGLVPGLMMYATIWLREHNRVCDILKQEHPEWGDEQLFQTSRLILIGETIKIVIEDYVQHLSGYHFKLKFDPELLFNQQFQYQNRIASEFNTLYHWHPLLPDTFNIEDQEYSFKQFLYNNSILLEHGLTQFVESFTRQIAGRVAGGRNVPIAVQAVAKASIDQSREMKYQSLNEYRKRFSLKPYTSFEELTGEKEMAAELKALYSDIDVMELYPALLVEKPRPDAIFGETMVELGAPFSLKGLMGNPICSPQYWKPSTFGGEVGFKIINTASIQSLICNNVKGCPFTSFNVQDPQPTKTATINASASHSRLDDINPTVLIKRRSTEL
# Description: Inhibition of COX2 in LPS-stimulated J774 cells assessed as inhibition of PGE2 levels by radioimmunoassay
# [2] = biological target: T2, Prostaglandin G/H synthase 1 (Mus musculus, UniProt P22437); experiment: Inhibition of COX1 in mouse J774 cells assessed as arachidonic acid-induced PGE2 levels by radio immunoassay; type: cell-based
# T2 sequence (P22437 whole entry): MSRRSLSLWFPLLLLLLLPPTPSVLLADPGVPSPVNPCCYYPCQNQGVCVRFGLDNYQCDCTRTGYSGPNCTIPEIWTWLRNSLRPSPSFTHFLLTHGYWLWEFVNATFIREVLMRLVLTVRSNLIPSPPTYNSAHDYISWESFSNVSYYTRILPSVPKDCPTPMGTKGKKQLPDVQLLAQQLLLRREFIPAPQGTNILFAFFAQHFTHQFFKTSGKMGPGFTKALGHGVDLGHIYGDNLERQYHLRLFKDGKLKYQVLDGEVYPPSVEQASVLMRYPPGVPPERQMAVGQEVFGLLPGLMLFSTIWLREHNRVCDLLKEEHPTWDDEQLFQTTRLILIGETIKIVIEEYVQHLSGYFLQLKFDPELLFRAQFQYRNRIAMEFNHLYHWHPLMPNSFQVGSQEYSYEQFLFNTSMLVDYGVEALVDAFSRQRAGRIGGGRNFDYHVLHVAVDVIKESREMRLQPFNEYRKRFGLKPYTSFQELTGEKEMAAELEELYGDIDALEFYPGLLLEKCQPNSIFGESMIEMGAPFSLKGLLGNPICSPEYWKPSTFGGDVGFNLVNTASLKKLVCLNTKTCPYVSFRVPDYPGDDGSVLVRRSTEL
# Mus musculus [3] = species: Mus musculus; experiment: Selectivity ratio of IC50 for mouse COX1 to IC50 for mouse COX2
# [4] = biological target: Prostaglandin G/H synthase 1 (Homo sapiens, UniProt P23219); experiment: Inhibition of COX1 in human whole blood assessed as TXB2 production; type: tissue-based
# Rattus norvegicus [5] = experiment: Antiinflammatory activity against carrageenan-induced hyperalgesia in rat assessed as paw pressure in rat at 20 mg/kg, po after 30 mins; type: functional
# Mus musculus [6] = experiment: Analgesic activity against acetic acid induced abdominal constriction in Swiss Albino mouse assessed as number of writhings at 10 mg/kg, po after 10 mins; type: functional, Abdomen
# Rattus norvegicus [7] = experiment: Antiinflammatory activity against carrageenan-induced hyperalgesia in rat assessed as paw pressure in rat at 20 mg/kg, po after 60 mins; type: functional
# Rattus norvegicus [8] = experiment: Antiinflammatory activity against carrageenan-induced hyperalgesia in rat assessed as paw pressure in rat at 20 mg/kg, po after 120 mins; type: functional
# [9] = biological target: T3, Prostaglandin G/H synthase 2 (Homo sapiens, UniProt P35354); experiment: Inhibition of COX2 in LPS-induced monocyte assessed as PGE2 production in human whole blood
# T3 sequence (P35354 whole entry): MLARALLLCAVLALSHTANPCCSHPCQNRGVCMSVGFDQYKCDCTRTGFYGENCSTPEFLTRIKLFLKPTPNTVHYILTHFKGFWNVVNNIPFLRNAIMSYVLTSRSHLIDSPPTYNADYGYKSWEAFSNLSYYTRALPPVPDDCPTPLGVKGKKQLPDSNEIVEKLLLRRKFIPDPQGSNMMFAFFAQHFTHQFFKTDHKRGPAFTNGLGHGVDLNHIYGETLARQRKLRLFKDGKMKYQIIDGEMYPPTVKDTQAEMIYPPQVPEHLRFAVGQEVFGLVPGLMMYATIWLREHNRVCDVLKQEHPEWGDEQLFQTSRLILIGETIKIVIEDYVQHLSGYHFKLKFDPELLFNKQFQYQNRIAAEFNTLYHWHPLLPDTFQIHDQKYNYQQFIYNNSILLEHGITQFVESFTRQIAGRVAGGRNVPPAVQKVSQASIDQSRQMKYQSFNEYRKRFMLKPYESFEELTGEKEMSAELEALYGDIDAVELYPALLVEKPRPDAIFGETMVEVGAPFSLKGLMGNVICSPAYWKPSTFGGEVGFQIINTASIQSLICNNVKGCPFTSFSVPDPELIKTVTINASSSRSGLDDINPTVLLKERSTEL
# Mus musculus [10] = experiment: Analgesic activity against acetic acid induced abdominal constriction in Swiss Albino mouse assessed as number of writhings at 20 mg/kg, po after 10 mins; type: functional, Abdomen
# Rattus norvegicus [11] = experiment: Antiinflammatory activity against carrageenan-induced paw edema in rat at 20 mg/kg, po; type: functional
# Prostaglandin G/H synthase 1 (Homo sapiens, UniProt P23219), sequence (P23219 whole entry): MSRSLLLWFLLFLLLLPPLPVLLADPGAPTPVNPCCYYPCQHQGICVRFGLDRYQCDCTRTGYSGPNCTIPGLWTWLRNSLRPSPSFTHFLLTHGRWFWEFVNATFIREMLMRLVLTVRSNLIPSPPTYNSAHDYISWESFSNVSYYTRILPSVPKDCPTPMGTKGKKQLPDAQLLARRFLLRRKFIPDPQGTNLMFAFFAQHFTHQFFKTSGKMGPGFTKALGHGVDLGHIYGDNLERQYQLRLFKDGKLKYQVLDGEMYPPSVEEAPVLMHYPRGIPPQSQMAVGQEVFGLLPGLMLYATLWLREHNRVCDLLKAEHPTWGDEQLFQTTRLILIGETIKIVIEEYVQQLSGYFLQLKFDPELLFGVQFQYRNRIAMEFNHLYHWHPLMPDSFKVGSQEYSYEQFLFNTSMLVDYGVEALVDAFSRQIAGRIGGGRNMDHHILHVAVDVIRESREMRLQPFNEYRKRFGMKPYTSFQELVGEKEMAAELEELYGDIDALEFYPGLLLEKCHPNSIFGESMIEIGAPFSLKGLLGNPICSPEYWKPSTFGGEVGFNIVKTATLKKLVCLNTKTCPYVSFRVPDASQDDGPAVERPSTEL
Compound,IC50 [1],IC50 [2],Ratio IC50 (Mus musculus [3]),also measured
CCOC(=O)C(=O)c1cc(-c2ccccc2)n(-c2ccc(S(C)(=O)=O)cc2)c1C,–,> 100 µM,–,–
CCOC(=O)Cc1cc(-c2ccc(S(C)(=O)=O)cc2)n(-c2cccc(F)c2)c1C,–,> 100 µM,> 10000,IC50 [4]: 20.4 µM; Activity (Rattus norvegicus [5]): 55.2 g; Activity (Mus musculus [6]): 28.9; Activity (Rattus norvegicus [7]): 49.8 g; Activity (Rattus norvegicus [8]): 43.4 g; IC50 [9]: 2.1 µM; Activity (Mus musculus [10]): 15.7; Activity (Rattus norvegicus [11]): 95.5%
CCOC(=O)Cc1cc(-c2ccc(F)cc2)n(-c2ccc(S(C)(=O)=O)cc2)c1C,0.4 µM,> 100 µM,> 250,–
CCOC(=O)Cc1cc(-c2ccc(F)c(F)c2)n(-c2ccc(S(C)(=O)=O)cc2)c1C,5.4 µM,> 100 µM,> 19,–
CCOC(=O)C(=O)c1cc(-c2ccc(C)cc2)n(-c2ccc(S(C)(=O)=O)cc2)c1C,–,> 100 µM,–,–
CCOC(=O)Cc1cc(-c2ccc(S(C)(=O)=O)cc2)n(-c2ccc(F)c(F)c2)c1C,–,> 100 µM,> 5000,–
CCOC(=O)Cc1cc(-c2ccc(S(C)(=O)=O)cc2)n(-c2ccc(F)cc2)c1C,0.01 µM,> 100 µM,> 10000,–
CCOC(=O)Cc1cc(-c2ccc(C)cc2)n(-c2ccc(S(C)(=O)=O)cc2)c1C,1.96 µM,> 100 µM,> 50,–
CCOC(=O)C(=O)c1cc(-c2ccc(C(F)(F)F)cc2)n(-c2ccc(S(C)(=O)=O)cc2)c1C,–,> 100 µM,–,–

# Now from value to compound, other results behind:
IC50 [1],IC50 [2],Ratio IC50 (Mus musculus [3]),Compound,also measured
11 µM,> 100 µM,> 9,CCOC(=O)C(=O)c1cc(-c2ccc(S(C)(=O)=O)cc2)n(-c2ccc(F)cc2)c1C,–
–,> 100 µM,–,CCOC(=O)C(=O)c1cc(-c2ccc(OC)cc2)n(-c2ccc(S(C)(=O)=O)cc2)c1C,–
0.9 µM,> 100 µM,> 100,CCOC(=O)C(=O)c1cc(-c2ccc(S(C)(=O)=O)cc2)n(-c2cccc(F)c2)c1C,–
–,> 100 µM,–,CCOC(=O)C(=O)c1cc(-c2ccc(F)cc2)n(-c2ccc(S(C)(=O)=O)cc2)c1C,–
–,> 100 µM,–,CCOC(=O)C(=O)c1cc(-c2ccc(F)c(F)c2)n(-c2ccc(S(C)(=O)=O)cc2)c1C,–
0.94 µM,> 100 µM,> 100,CCOC(=O)C(=O)c1cc(-c2ccc(S(C)(=O)=O)cc2)n(-c2ccc(OC)cc2)c1C,–
0.55 µM,> 100 µM,> 200,CCOC(=O)Cc1cc(-c2ccc(OC)cc2)n(-c2ccc(S(C)(=O)=O)cc2)c1C,–
8.4 µM,> 100 µM,> 12,CCOC(=O)C(=O)c1cc(-c2ccc(S(C)(=O)=O)cc2)n(-c2ccc(F)c(F)c2)c1C,–
0.026 µM,> 100 µM,> 4000,CCOC(=O)Cc1cc(-c2ccc(S(C)(=O)=O)cc2)n(-c2ccc(OC)cc2)c1C,–
–,> 100 µM,–,CCOC(=O)Cc1cc(-c2ccccc2)n(-c2ccc(S(C)(=O)=O)cc2)c1C,–
–,> 100 µM,–,CCOC(=O)Cc1cc(-c2ccc(C(F)(F)F)cc2)n(-c2ccc(S(C)(=O)=O)cc2)c1C,–
